From ChEMBL document CHEMBL1671726 (Antimicrob Agents Chemother, 2010)

Tests used:
Assay in all cases: microbe, parasite or virus in culture
Plasmodium falciparum [1] = conditions: F07-42, 72 h
Plasmodium falciparum [2] = conditions: F08B41, 72 h
Plasmodium falciparum [3] = conditions: F08B7, 72 h
Plasmodium falciparum [4] = conditions: F08B53, 72 h
Plasmodium falciparum [5] = conditions: F09A55, 72 h
Plasmodium falciparum [6] = conditions: F09N64, 72 h
Plasmodium falciparum [7] = conditions: F09A9, 72 h
Plasmodium falciparum [8] = conditions: F09A61, 72 h
Plasmodium falciparum [9] = conditions: 72 h
Description: Antimicrobial activity against Plasmodium falciparum harboring pfnhe1 ms4760 haplotype 3 carrying 1 copy of DNNND repeat and His/Asp ratio 6:2 infected in human erythrocytes after 72 hrs by SYBR green I-based fluorescence assay

Plasmodium falciparum [10] = conditions: K1, 72 h
Plasmodium falciparum [11] = conditions: F08B2, 72 h
Plasmodium falciparum [12] = conditions: F09N66, 72 h
Plasmodium falciparum [13] = conditions: F07-13, 72 h
Plasmodium falciparum [14] = conditions: F07-35, 72 h
Plasmodium falciparum [15] = conditions: F07-23, 72 h
Plasmodium falciparum [16] = conditions: 72 h; remark: listed apart in the source
Description: Antimicrobial activity against Plasmodium falciparum harboring pfnhe1 ms4760 haplotype 9 carrying 3 copies of DNNND repeat and His/Asp ratio 7:6 infected in human erythrocytes after 72 hrs by SYBR green I-based fluorescence assay

Plasmodium falciparum [17] = conditions: F09N29, 72 h
Plasmodium falciparum [18] = conditions: F07-3, 72 h
Plasmodium falciparum [19] = conditions: F09N58, 72 h
Plasmodium falciparum [20] = conditions: F08B61, 72 h
Plasmodium falciparum [21] = conditions: F07-46, 72 h
Plasmodium falciparum [22] = conditions: F09A41, 72 h
Plasmodium falciparum [23] = conditions: F07-8, 72 h
Plasmodium falciparum [24] = conditions: F09N6, 72 h
Plasmodium falciparum [25] = conditions: F09N35, 72 h
Plasmodium falciparum [26] = conditions: F09A54, 72 h
Plasmodium falciparum [27] = conditions: F08B40, 72 h
Plasmodium falciparum [28] = conditions: F07-7, 72 h
Plasmodium falciparum [29] = conditions: 72 h; remark: listed apart in the source
Description: Antimicrobial activity against Plasmodium falciparum harboring pfnhe1 ms4760 haplotype 35 carrying 1 copy of DNNND repeat and His/Asp ratio 5:2 infected in human erythrocytes after 72 hrs by SYBR green I-based fluorescence assay

Plasmodium falciparum [30] = conditions: F09A10, 72 h
Plasmodium falciparum [31] = conditions: F07-28, 72 h
Plasmodium falciparum [32] = conditions: F08B9, 72 h
Plasmodium falciparum [33] = conditions: F08B27, 72 h
Plasmodium falciparum [34] = conditions: F09N40, 72 h
Plasmodium falciparum [35] = conditions: W2, 72 h
Plasmodium falciparum [36] = conditions: F07-31, 72 h

SMILES: C=C[C@H]1CN2CC[C@H]1C[C@H]2[C@H](O)c1ccnc2ccc(OC)cc12 [QUININE]
- IC50 (Plasmodium falciparum [1]): 388 nM
- IC50 (Plasmodium falciparum [2]): 886 nM
- IC50 (Plasmodium falciparum [3]): 1100 nM
- IC50 (Plasmodium falciparum [4]): 468 nM
- IC50 (Plasmodium falciparum [5]): 149 nM
- IC50 (Plasmodium falciparum [6]): 475 nM
- IC50 (Plasmodium falciparum [7]): 562 nM
- IC50 (Plasmodium falciparum [8]): 373 nM
- IC50 (Plasmodium falciparum [9]): 223 nM
- IC50 (Plasmodium falciparum [10]): 407 nM
- IC50 (Plasmodium falciparum [11]): 1020 nM
- IC50 (Plasmodium falciparum [12]): 711 nM
- IC50 (Plasmodium falciparum [13]): 365 nM
- IC50 (Plasmodium falciparum [14]): 821 nM
- IC50 (Plasmodium falciparum [15]): 447 nM
- IC50 (Plasmodium falciparum [16]): 837 nM
- IC50 (Plasmodium falciparum [17]): 853 nM
- IC50 (Plasmodium falciparum [18]): 875 nM
- IC50 (Plasmodium falciparum [19]): 448 nM
- IC50 (Plasmodium falciparum [20]): 1130 nM
- IC50 (Plasmodium falciparum [21]): 894 nM
- IC50 (Plasmodium falciparum [22]): 1300 nM
- IC50 (Plasmodium falciparum [23]): 874 nM
- IC50 (Plasmodium falciparum [24]): 710 nM
- IC50 (Plasmodium falciparum [25]): 905 nM
- IC50 (Plasmodium falciparum [26]): 243 nM
- IC50 (Plasmodium falciparum [27]): 260 nM
- IC50 (Plasmodium falciparum [28]): 456 nM
- IC50 (Plasmodium falciparum [29]): 260 nM
- IC50 (Plasmodium falciparum [30]): 716 nM
- IC50 (Plasmodium falciparum [31]): 473 nM
- IC50 (Plasmodium falciparum [32]): 218 nM
- IC50 (Plasmodium falciparum [33]): 870 nM
- IC50 (Plasmodium falciparum [34]): 2120 nM
- IC50 (Plasmodium falciparum [35]): 720 nM
- IC50 (Plasmodium falciparum [36]): 433 nM
